Laboratory results: patent US12636299B2, “Terpenoid derivatives, pharmaceutical preparations containing these derivatives and their use in neuroprotection” (UNIVERZITA PALACKEHO V OLOMOUCI, priority 2020, dated 2026)

Experiments:
[1] = tested on: human neuron-like SH-SY5Y cells; assay: 3NPA-induced model of Huntington's disease, neuron-like SH-SY5Y cells; assay type: cell-based; settings: difference to 20 mM 3NPA, 48 h
Protocol: (§1) Before application of toxin 3-nitropropionic acid (3NPA) for mimicking Huntington's disease, the 3NPA was dissolved in water and neutralized by sodium hydroxide. SH-SY5Y cells were seeded in the same density and differentiated by the procedure shown above. Astrocyte cells A-172 were also seeded as described in previous section. Both cell lines were co-treated by 3NPA (20 mM for SH-SY5Y cells, […]) and tested compounds at 0.1, 1 and 10 μM concentration for 48 h.

[2] = tested on: superoxide radical formation; assay: Oxidative stress (superoxide radical formation, DHE) in 3NPA-induced model on SH-SY5Y; assay type: cell-based, human; settings: for Superoxide radical formation (oxidative stress) %: 20 mM 3NPA = 100%, 24 hours
Protocol: Similarly, to previous assay, cells grown on 96-multiwell plates at density 20000 cells per well underwent differentiation and treatment procedure with 3-nitropropionic acid (3NPA) in this model. After 24 hours of co-treatment with 20 mM 3NPA, superoxide radical's formation as a marker of oxidative stress was quantified by dihydroethidium according to Kim et al. (2017, J. Med. Food, 20, 140-151). Briefly, neuron-like SH-SY5Y cells were centrifuged at 500 g for 5 min and 30 s, then media were replaced by 10 μM DHE PBS solution and kept at room temperature for 30 min. After that, DHE was read at 500 nm/580 nm (excitation/emission) by Infinite M200 Pro (Tecan) microplate reader. DHE is cell permeable dye which is selective for superoxide radical detection. Overall oxidative stress achieved by 20 mM 3NPA was consider as 100% and thus the reduction in superoxide radical's formation (OS reducing effect) was determined. As shown in Table 6 and FIG. 2, 20 mM 3NPA induced 2.7-fold increase in superoxide radical's formation.

[3] = tested on: human neuroblastoma cell line SH-SY5Y; assay: Viability of differentiated SH-SY5Y in salsolinol-induced model of PD (Calcein AM); assay type: cell-based; settings: for Neuroprotective effect (% of control): difference between 800 μM SAL and co-treatment group means, 24 hours; for effect on SH-SY5Y viability in salsolinol model, in words: 800 μM salsolinol, comparison with NAC
Protocol: Similarly, as in previous “Safety test”, the SH-SY5Y cells were seeded at density 7000 cells/well. After 48 h differentiation, old 1% DMEM/F12 media was replaced by fresh media containing 800 μM salsolinol (SAL) and tested compounds in 0.1, 1 and 10 μM concentrations. N-acetylcystein were chosen as positive control. After 24 hours, the cell viability was measured by Calcein AM viability assay. The values in Table 2 show % of viability of all tested compounds relative to control. The control (medium with DMSO, <0.1% (v/v)) was postulated as 100% viability (see the first line of the table), while the SAL exposure lead to decrease of viability to 65.4±0.97%.

[4] = tested on: astrocyte A-172 cells; assay: 3NPA-induced model of Huntington's disease, astrocyte A-172 cells; assay type: cell-based, human; settings: for Astro-protective effect (% of control): difference to 10 mM 3NPA, 48 h
Protocol: as §1

[5] = tested on: glial A-172 cells; assay: Cytotoxicity, Calcein AM viability assay on glial A-172 cells; assay type: cell-based, human; settings: NAC at 1000 μM
Protocol: The assay was performed in 96-well microplate with 7000 SH-SY5Y cells per well. After 48 h, old DMEM/F12 media was removed by fresh media containing tested compounds at 0.1, 1 and 10 μM concentrations for 24 h. Glial cell line A-172 purchased from ATCC and grown in same conditions as SH-SY5Y cell line. […] All tested compounds dissolved in DMSO were added into the medium. The maximum concentration of DMSO in media was kept below 0.1% (v/v). The cell viability was measured by Calcein AM (1 mg/ml ThermoFisher) viability assay. Solution of Calcein AM in PBS (0.75 μM) was pipetted to cells and incubated for 50 min. After that the fluorescence was measured at 488/517 nm (excitation/emission) using microplate reader Infinite M200 (TECAN). Calcein AM assay is based on the dye-intracellular-esterase cleavage of non-fluorescent dye (Calcein AM) by living cells to fluorescent dye (Calcein), while dying cells lose such ability.

[6] = tested on: caspase-3,7 activity; assay: Caspase-3,7 activity in salsolinol-induced model of PD on SH-SY5Y (Ac-DEVD-AMC); assay type: cell-based, human; settings: for Caspase-3,7 activity (% of 800 μM SAL control): percentages of control (800 μM SAL = 100), 24 hour co-treatment; for reduction of caspase-3,7 activity, in words: 800 μM SAL, compounds 3 and 4 at 10 μM compared with NAC; for efficacy relative to positive controls (by used concentration): caspase-3,7 activity, salsolinol model
Protocol: Similarly, as shown in previous assay, cells grew on 96 multiwell plates at density 20000 cells per well underwent differentiation and treatment procedure for salsolinol model. After 24 hour co-treatment with salsolinol, caspase-3,7 (casp-3,7) activity as marker of apoptosis was quantified by its substrate Ac-DEVD-AMC according to Carrasco et al. (2003, BioTechniques, 34, 1064-1067). In this model, overall casp-3,7 activity induced by 800 μM SAL was consider as 100% and thus the reduction in casp-3,7 was observed after treatment with the protective terpenoid derivatives. As shown in Table 4 and FIG. 2, 800 μM SAL induced 2.9-fold increase.

[7] = tested on: SH-SY5Y human neuroblastoma cell line; assay: Cytotoxicity, Calcein AM viability assay on neuron-like SH-SY5Y cells; assay type: cell-based; settings: 24 h
Protocol: The SH-SY5Y human neuroblastoma cell line obtained from ECACC (The European Collection of Authenticated Cell Cultures) was cultivated in Dulbecco's modified Eagle's Medium and Ham's F12 Nutrient Mixture (DMEM:F-12, 1:1), supplemented with 10% fetal bovine serum (FBS) and 1% penicillin and streptomycin at 37° C. in a humidified atmosphere 5% CO2, 95% humidity in passage limit up to ECACC+20. The assay was performed in 96-well microplate with 7000 SH-SY5Y cells per well. After 48 h, old DMEM/F12 media was removed by fresh media containing tested compounds at 0.1, 1 and 10 μM concentrations for 24 h. Glial cell line A-172 purchased from ATCC and grown in same conditions as SH-SY5Y cell line. A-172 cells were seeded in density 2000 cells per well and growing medium was replaced by treatment medium containing tested compounds in 0.1, 1 and 10 μM concentration; or in higher concentrations for R-LA or NAC positive controls for 48 hours. All tested compounds dissolved in DMSO were added into the medium. The maximum concentration of DMSO in media was kept below 0.1% (v/v). The cell viability was measured by Calcein AM (1 mg/ml ThermoFisher) viability assay. Solution of Calcein AM in PBS (0.75 μM) was pipetted to cells and incubated for 50 min. After that the fluorescence was measured at 488/517 nm (excitation/emission) using microplate reader Infinite M200 (TECAN). Calcein AM assay is based on the dye-intracellular-esterase cleavage of non-fluorescent dye (Calcein AM) by living cells to fluorescent dye (Calcein), while dying cells lose such ability. The values in Table 2 show the % of viability compared to control for all tested compounds. The results from DMSO control (medium with DMSO, <0.1% (v/v)) was postulated as 100% viability (see the first line of Table 2).

[8] = tested on: glial A-172 cells; assay: Cytotoxicity, Calcein AM viability assay on glial A-172 cells; assay type: cell-based, human; settings: 48 hours

## C=C(C(=O)OCc1ccncc1)C1CCC2(COC(C)=O)CCC3(C)C(CCC4C5(C)CCC(OC(C)=O)C(C)(C)C5CCC43C)C12 (stereo not drawn) [Compound 3, Pyridin-4-yl-methyl 3β,28-bis(acetyloxy)lup-20(30)-en-29-oate]
[1]; 0.1 μM
  Neuro-protective effect (% of control): N/A (N/A = no protection)
[1]; 1 μM
  Neuro-protective effect (% of control): 39.96 % of control
[1]; 10 μM
  Neuro-protective effect (% of control): 24.13 % of control
[2]; 0.1 μM
  Superoxide radical formation (oxidative stress) %: 88.4%
[2]; 1 μM
  Superoxide radical formation (oxidative stress) %: 79.0%
[2]; 10 μM, comparison with 100 μM NAC
  OS reducing effect, in words: even stronger activity toward oxidative stress
[2]; 10 μM
  Superoxide radical formation (oxidative stress) %: 81.9%
[3]; 0.1 μM
  Neuroprotective effect (% of control): N/A (N/A = no protection)
[3]; 1 μM
  Neuroprotective effect (% of control): 33.10 % of control
[3]; 10 μM
  Neuroprotective effect (% of control): 21.50 % of control
[3]
  effect on SH-SY5Y viability in salsolinol model, in words: better effect than 1000 μM NAC
[4]; A-172, 0.1 μM
  Astro-protective effect (% of control): N/A (N/A = no protection)
[4]; A-172, 1 μM
  Astro-protective effect (% of control): 11.98 % of control
[4]; A-172, 10 μM
  Astro-protective effect (% of control): N/A (N/A = no protection)
[4]; A-172 cells, comparison with R-LA
  protective effect on astrocytes in 3NPA model, in words: positive effect comparable to R-LA control
[5]
  effect on viability of astrocytes, in words: slight decrease in percentage of living cells
[6]; 1 μM
  Caspase-3,7 activity (% of 800 μM SAL control): 73.7%
[6]; 10 μM
  Caspase-3,7 activity (% of 800 μM SAL control): 55.6%
[6]
  reduction of caspase-3,7 activity, in words: comparable
  efficacy relative to positive controls (by used concentration): 10 fold
[7]; 0.1 μM
  viability, percentage of DMSO control: 115.8%
[7]; 1 μM
  viability, percentage of DMSO control: 145.0%
[7]; 10 μM
  viability, percentage of DMSO control: 137.4%
[8]; 0.1 μM
  viability, percentage of DMSO control: 95.5%
[8]; 1 μM
  viability, percentage of DMSO control: 98.2%
[8]; 10 μM
  viability, percentage of DMSO control: 71.7%

## C=C(C(=O)OCc1cccnc1)C1CCC2(COC(C)=O)CCC3(C)C(CCC4C5(C)CCC(OC(C)=O)C(C)(C)C5CCC43C)C12 (stereo not drawn) [Compound 4, Pyridin-3-yl-methyl (3β)-3,28-bis(acetyloxy)lup-20(30)-en-29-oate]
[1]; 0.1 μM
  Neuro-protective effect (% of control): N/A (N/A = no protection)
[1]; 1 μM
  Neuro-protective effect (% of control): 32.36 % of control
[1]; 10 μM
  Neuro-protective effect (% of control): 28.98 % of control
[2]; 0.1 μM
  Superoxide radical formation (oxidative stress) %: 84.7%
[2]; 1 μM
  Superoxide radical formation (oxidative stress) %: 78.5%
[2]; 10 μM
  Superoxide radical formation (oxidative stress) %: 65.8%
[3]; 0.1 μM
  Neuroprotective effect (% of control): N/A (N/A = no protection)
[3]; 1 μM
  Neuroprotective effect (% of control): 33.70 % of control
[3]; 10 μM
  Neuroprotective effect (% of control): 33.99 % of control
[3]
  effect on SH-SY5Y viability in salsolinol model, in words: better effect than 1000 μM NAC
[4]; A-172, 0.1 μM
  Astro-protective effect (% of control): 7.38 % of control
[4]; A-172, 1 μM
  Astro-protective effect (% of control): 3.25 % of control
[4]; A-172, 10 μM
  Astro-protective effect (% of control): N/A (N/A = no protection)
[5]
  effect on viability of astrocytes, in words: slight decrease in percentage of living cells
[6]; 1 μM
  Caspase-3,7 activity (% of 800 μM SAL control): 67.2%
[6]; 10 μM
  Caspase-3,7 activity (% of 800 μM SAL control): 46.0%
[6]
  reduction of caspase-3,7 activity, in words: better
  efficacy relative to positive controls (by used concentration): 10 fold
[7]; 0.1 μM
  viability, percentage of DMSO control: 99.9%
[7]; 1 μM
  viability, percentage of DMSO control: 146.1%
[7]; 10 μM
  viability, percentage of DMSO control: 142.5%
[8]; 0.1 μM
  viability, percentage of DMSO control: 104.2%
[8]; 1 μM
  viability, percentage of DMSO control: 97.9%
[8]; 10 μM
  viability, percentage of DMSO control: 83.6%
